Measurements published in paper PMC11944476, “In Vitro Evaluation of Esters of Quinoxaline-1,4-di-N-oxide Derivatives as New Antitaeniasis Agents and Their Inhibitory Activity Against Triosephosphate Isomerase” (Pharmaceuticals, 2025).

Tests used:
[1] = target: T1, recombinant TsTIM (WT TsTIM) (Taenia solium, UniProt Q9GTX8); test: enzyme inactivation assay, GAP to DHAP, alpha-GDH coupled NADH oxidation at […] nm; format: biochemical
T1 construct: N-terminal six-His tag from pRSET, expressed in E. coli BL21 Codon Plus (DE3)-RIL, IMAC-purified, tag removal not mentioned; TIM is a dimer
T1 sequence (Q9GTX8 whole entry): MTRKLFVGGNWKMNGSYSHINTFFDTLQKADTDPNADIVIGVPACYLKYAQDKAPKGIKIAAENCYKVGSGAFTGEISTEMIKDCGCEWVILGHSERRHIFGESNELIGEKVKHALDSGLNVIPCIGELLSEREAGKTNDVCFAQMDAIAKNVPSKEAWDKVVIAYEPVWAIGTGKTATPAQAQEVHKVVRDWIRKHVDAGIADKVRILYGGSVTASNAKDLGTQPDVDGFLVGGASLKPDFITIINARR

[2] = target: T1, recombinant TsTIM (WT TsTIM); test: alpha-GDH coupled NADH oxidation at […] nm; format: biochemical; settings: GAP to DHAP direction

Row | SMILES | inhibition at 1000 µM [1] [%] | alpha-GDH coupled NADH oxidation at 340 nm [2]
1 | CCOC(=O)c1ccc2c(c1)[n+]([O-])c(C(=O)c1cccs1)c(C(F)(F)F)[n+]2[O-] [TS-12] | < 40 | –
2 | O=C[C@H](O)COP(=O)(O)O [glyceraldehyde 3-phosphate] | – | measuring the conversion of glyceraldehyde 3-phosphate (GAP) to dihydroxyacetone phosphate (DHAP)
